Measured values taken from patent US8664245B2, “Fumarate salts of a histamine H3 receptor antagonist” (Sanofi, priority 2009, dated 2014).

Experiments:
Assay type in all cases: physicochemical
[1] = Dynamic Vapor Sorption (DVS) water sorption profile
Procedure: The water sorption profile of a compound of the invention is determined using a SMS Instruments Dynamic Vapor Sorption Analyzer (DVS) Model DVS-Advantage. Relative humidity (RH) and weight are calibrated using standards. The powder of the relevant compound of the invention is loaded and dried at 0% RH for 3 hours prior to starting the experiment. The RH is stepped from 0.1 to 94.4% in 11 steps. The specimen weight is considered constant at each step when percent mass change is less than 0.01% over a 5-minute interval with a minimum absolute equilibration time of 15 minutes and maximum equilibration time of 180 minutes.

[2] = Stability testing: storage at 60° C. and ambient RH for two weeks; settings: solid, ambient RH, 14 days
Procedure: Stability Testing 1. Storage at 60° C. and Ambient RH for Two Weeks.
Approximately 400 mg of the difumarate monohydrate salt was weighed into a scintillation vial and placed into an oven set to 60° C. The sample was tested for appearance, then diluted with ethanol to approximately 1 mg/mL and analyzed for related substances and optical enantiomer by HPLC.

[3] = Stability testing: storage at 60° C./80% RH for two weeks; settings: solid, 14 days
Procedure: 2. Storage at 60° C./80% RH and Ambient RH for Two Weeks.
A glass desiccation chamber was pre-equilibrated overnight with a saturated KBr solution to 79.3% RH within an […] oven. Approximately 400 mg of the difumarate monohydrate was weighed into a scintillation vial and placed into the chamber, which was then sealed to maintain the environment. Samples were tested for appearance, then diluted with ethanol to approximately 1 mg/mL and analyzed for related substances and optical enantiomer by HPLC.

[4] = Stability testing: storage at 80° C./80% RH for 4 days; settings: solid
Procedure: 3. Storage at 80° C./80% RH for 4 Days
A glass desiccation chamber was pre-equilibrated overnight with a saturated KBr solution to 79.3% RH within an 80° C. oven. Approximately 100 mg of the difumarate monohydrate salt was weighed into respective scintillation vials and these vials were placed into the chamber, which was then sealed to maintain the environment. The sample was tested on day 4 for appearance, then diluted with ethanol to approximately 1 mg/mL and analyzed by HPLC versus a control (time 0) sample.

CN1CCC[C@H]1CCNS(=O)(=O)c1ccc2c(c1)CN(CC1CCCCC1)CC2.O=C(O)/C=C/C(=O)O [difumarate monohydrate salt, 2-(cyclohexylmethyl)-N-{2-[(2S)-1-methylpyrrolidin-2-yl]ethyl}-1,2,3,4-tetrahydroisoquinoline-7-sulfonamide difumarate monohydrate]
Change in Mass (%) - dry, Desorption ([1]; 0.6 % RH, 25° C.): 0.0%
Change in Mass (%) - dry, Sorption ([1]; 0.6 % RH, 25° C.): 0.0%
Change in Mass (%) - dry, Desorption ([1]; 10.2 % RH, 25° C.): 2.9%
Change in Mass (%) - dry, Sorption ([1]; 10.2 % RH, 25° C.): 2.8%
Change in Mass (%) - dry, Desorption ([1]; 19.6 % RH, 25° C.): 2.9%
Change in Mass (%) - dry, Sorption ([1]; 19.6 % RH, 25° C.): 2.9%
Change in Mass (%) - dry, Desorption ([1]; 29.4 % RH, 25° C.): 3.0%
Change in Mass (%) - dry, Sorption ([1]; 29.4 % RH, 25° C.): 3.0%
Change in Mass (%) - dry, Desorption ([1]; 38.5 % RH, 25° C.): 3.0%
Change in Mass (%) - dry, Sorption ([1]; 38.5 % RH, 25° C.): 3.0%
Change in Mass (%) - dry, Desorption ([1]; 48.5 % RH, 25° C.): 3.0%
Change in Mass (%) - dry, Sorption ([1]; 48.5 % RH, 25° C.): 3.0%
Change in Mass (%) - dry, Desorption ([1]; 57.5 % RH, 25° C.): 3.1%
Change in Mass (%) - dry, Sorption ([1]; 57.5 % RH, 25° C.): 3.1%
Change in Mass (%) - dry, Desorption ([1]; 67.1 % RH, 25° C.): 3.1%
Change in Mass (%) - dry, Sorption ([1]; 67.1 % RH, 25° C.): 3.1%
Change in Mass (%) - dry, Desorption ([1]; 77.0 % RH, 25° C.): 3.2%
Change in Mass (%) - dry, Sorption ([1]; 77.0 % RH, 25° C.): 3.1%
Change in Mass (%) - dry, Desorption ([1]; 87.0 % RH, 25° C.): 3.2%
Change in Mass (%) - dry, Sorption ([1]; 87.0 % RH, 25° C.): 3.2%
Change in Mass (%) - dry, Desorption ([1]; 94.2 % RH, 25° C.): 3.3%
Change in Mass (%) - dry, Sorption ([1]; 94.2 % RH, 25° C.): 3.3%
chemical stability (related substances and optical enantiomer by HPLC, appearance) [2]: stable in the solid state with a minimal increase in impurity levels and no observable change in appearance
physical stability (physical form by XRPD and DSC-TGA) [2]: no observable change in physical form
chemical stability (related substances and optical enantiomer by HPLC, appearance) [3]: stable in the solid state with a minimal increase in impurity levels and no observable change in appearance
physical stability (physical form by XRPD and DSC-TGA) [3]: no observable change in physical form
chemical stability (HPLC versus time 0 control, appearance) [4]: stable in the solid state with no observable chemical change

CN1CCC[C@H]1CCNS(=O)(=O)c1ccc2c(c1)CN(CC1CCCCC1)CC2.O=C(O)/C=C/C(=O)O [hemifumarate dihydrate, 2-(cyclohexylmethyl)-N-{2-[(2S)-1-methylpyrrolidin-2-yl]ethyl}-1,2,3,4-tetrahydroisoquinoline-7-sulfonamide hemifumarate dihydrate]
Change in Mass (%) - dry, Desorption ([1]; 0.6 % RH, 25° C. (Table 8)): 0.00%
Change in Mass (%) - dry, Sorption ([1]; 0.6 % RH, 25° C. (Table 8)): 0.00%
Change in Mass (%) - dry, Desorption ([1]; 10.1 % RH, 25° C.): 0.56%
Change in Mass (%) - dry, Sorption ([1]; 10.1 % RH, 25° C.): 0.25%
Change in Mass (%) - dry, Desorption ([1]; 19.4 % RH, 25° C.): 6.71%
Change in Mass (%) - dry, Sorption ([1]; 19.4 % RH, 25° C.): 3.53%
Change in Mass (%) - dry, Desorption ([1]; 29.0 % RH, 25° C.): 6.85%
Change in Mass (%) - dry, Sorption ([1]; 29.0 % RH, 25° C.): 3.87%
Change in Mass (%) - dry, Desorption ([1]; 37.8 % RH, 25° C.): 6.89%
Change in Mass (%) - dry, Sorption ([1]; 37.8 % RH, 25° C.): 6.50%
Change in Mass (%) - dry, Desorption ([1]; 47.7 % RH, 25° C.): 6.97%
Change in Mass (%) - dry, Sorption ([1]; 47.7 % RH, 25° C.): 6.89%
Change in Mass (%) - dry, Desorption ([1]; 56.4 % RH, 25° C.): 7.10%
Change in Mass (%) - dry, Sorption ([1]; 56.4 % RH, 25° C.): 7.01%
Change in Mass (%) - dry, Desorption ([1]; 65.7 % RH, 25° C.): 7.21%
Change in Mass (%) - dry, Sorption ([1]; 65.7 % RH, 25° C.): 7.13%
Change in Mass (%) - dry, Desorption ([1]; 75.3 % RH, 25° C.): 7.33%
Change in Mass (%) - dry, Sorption ([1]; 75.3 % RH, 25° C.): 7.32%
Change in Mass (%) - dry, Desorption ([1]; 84.8 % RH, 25° C.): 7.66%
Change in Mass (%) - dry, Sorption ([1]; 84.8 % RH, 25° C.): 7.68%
Change in Mass (%) - dry, Desorption ([1]; 92.0 % RH, 25° C.): 8.25%
Change in Mass (%) - dry, Sorption ([1]; 92.0 % RH, 25° C.): 8.31%
